For 75 compounds, IC50 and inhibition results are on record in the Kinase Knowledgebase extract (Sharma et al. 2016).

Sequence of MAPK14 (human) (Q16539 whole entry, looked up): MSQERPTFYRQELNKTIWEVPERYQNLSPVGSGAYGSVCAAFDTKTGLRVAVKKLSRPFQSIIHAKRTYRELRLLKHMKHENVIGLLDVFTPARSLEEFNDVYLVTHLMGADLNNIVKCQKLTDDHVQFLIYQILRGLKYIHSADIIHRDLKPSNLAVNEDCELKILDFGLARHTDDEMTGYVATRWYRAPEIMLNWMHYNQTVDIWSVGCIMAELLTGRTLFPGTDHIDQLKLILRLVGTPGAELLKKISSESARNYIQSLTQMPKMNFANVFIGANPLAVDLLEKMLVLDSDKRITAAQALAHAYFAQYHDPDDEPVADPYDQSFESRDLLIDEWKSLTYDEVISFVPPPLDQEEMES

One assay concerns the target MAPK14 (human) (UniProt Q16539). As to the kind of experiment: Inhibition of MAPK14 Kinase Activity.
Conditions: not given
Regarding `CCc1ccccc1NC(=O)Nc1sc(C(C)(C)C)cc1C(=O)N1CCNC(=O)C1(C)C`, the IC50 (usually the midpoint of a concentration-inhibition curve) was less than 5 µM.

`COC(=O)CN1CCN(C(=O)c2[nH]c(C(C)(C)C)cc2NC(=O)Nc2cccc(Cl)c2Cl)C(C)(C)C1=O` yielded an IC50 of less than 5 µM.

`COc1c(Cl)cccc1NC(=O)Nc1sc(C(C)(C)C)cc1C(=O)N1CCNC(=O)C1(C)CCO` (stereo not given) returned an IC50 of less than 5 µM.

For the compound `COc1ccc(NC(=O)Nc2sc(C(C)(C)C)cc2C(=O)N2CCNC(=O)CC2)c(Cl)c1Cl`, the IC50 is less than 5 µM.

The compound `CC(C)(C)c1cc(C(=O)N2CCS(=O)(=O)CC2)c(NC(=O)Nc2cccc3c2OCO3)s1` came in with an IC50 of less than 5 µM.

Turning to `COC(=O)CN1CCN(C(=O)c2nc(C(C)(C)C)sc2NC(=O)Nc2cccc(Cl)c2Cl)C(C)(C)C1=O`, the half-inhibitory concentration (IC50) was less than 5 µM.

The compound `CN(C)CCN1CCN(C(=O)c2sc(C(C)(C)C)cc2NC(=O)Nc2cccc(Cl)c2Cl)C(C)(C)C1=O` registered an IC50 of less than 5 µM.

Take `CON(C)C(=O)CN1CCN(C(=O)c2cc(C(C)(C)C)sc2NC(=O)Nc2ccc(F)c(F)c2Cl)CCC1=O`: the concentration for half-maximal inhibition (IC50) is less than 5 µM.

Take `CCC1(C)C(=O)N(CC(=O)OC)CCN1C(=O)c1cc(C(C)(C)C)sc1NC(=O)Nc1cccc(Cl)c1Cl` (stereo not given): the IC50 was less than 5 µM.

For `CC(C)(C)c1cc(C(=O)N2CCNC(=O)CC2)c(NC(=O)Nc2ccc3c(c2Cl)OCO3)s1`, the concentration for half-maximal inhibition (IC50) is less than 5 µM.

The compound `CN1CCN(C(=O)c2oc(C(C)(C)C)cc2NC(=O)Nc2cccc(Cl)c2Cl)CCS1(=O)=O` had an IC50 of less than 5 µM.

`CC1(C)CN(C(=O)c2cc(C(C)(C)C)sc2NC(=O)Nc2cccc(Cl)c2Cl)CCNC1=O` returned an IC50 of less than 5 µM.

`Cc1cccc(NC(=O)Nc2sc(C(C)(C)C)cc2C(=O)N2CCC(=O)N(CCN(C)C)CC2)c1Cl` had an IC50 of less than 5 µM.

For the compound `CN(C)CCN1CCN(C(=O)c2cc(C(C)(C)C)sc2NC(=O)Nc2ccc(F)c(Cl)c2Cl)C(C)(C)C1=O`, the IC50 is less than 5 µM.

Compound `CC(C)(C)c1cc(C(=O)N2CCS(=O)(=O)CC2)c(NC(=O)Nc2ccc3c(c2Cl)OCO3)s1` came in with an IC50 of less than 5 µM.

For the compound `CN(C)CCNC(=O)CN1CCN(C(=O)c2cc(C(C)(C)C)sc2NC(=O)Nc2ccc(F)c(F)c2Cl)CCC1=O`, the IC50 is less than 5 µM.

`CCC1(C)C(=O)N(CC(=O)NCCN(C)C)CCN1C(=O)c1cc(C(C)(C)C)sc1NC(=O)Nc1ccc(F)cc1Cl` (stereo not given) had an IC50 of less than 5 µM.

Regarding `CN(C)CCN1CCN(C(=O)c2oc(C(C)(C)C)cc2NC(=O)Nc2cccc(Cl)c2Cl)CCS1(=O)=O`, the IC50 is less than 5 µM.

`CC(C)(C)c1cc(C(=O)N2CCNC(=O)C2(C)C)c(NC(=O)Nc2ccc3c(c2)OCO3)s1` yielded a half-inhibitory concentration (IC50) of less than 5 µM.

`CC(C)(C)c1cc(C(=O)N2CCNC(=O)C2(C)CC(=O)O)c(NC(=O)Nc2cccc(Cl)c2Cl)s1` (stereo not given) gave an IC50 of less than 5 µM.

The compound `COC(=O)CC1(C)C(=O)NCCN1C(=O)c1[nH]c(C(C)(C)C)cc1NC(=O)Nc1ccc(F)c(Cl)c1Cl` (stereo not given) registered an IC50 of less than 5 µM.

For the compound `CC1(C)OCC(CN2CCN(C(=O)c3nc(C(C)(C)C)sc3NC(=O)Nc3cccc(Cl)c3Cl)CCC2=O)O1` (stereo not given), the IC50 is less than 5 µM.

In the case of `COC(=O)CCN1CCN(C(=O)c2cc(C(C)(C)C)sc2NC(=O)Nc2cccc(Cl)c2Cl)C(C)(C)C1=O`, the IC50 was less than 5 µM.

For the compound `CONC(=O)CN1CCN(C(=O)c2cc(C(C)(C)C)sc2NC(=O)Nc2cccc(Cl)c2Cl)C(C)(CC(=O)NOC)C1=O` (stereo not given), the concentration for half-maximal inhibition (IC50) is less than 5 µM.

In turn, `CC(C)(C)c1cc(C(=O)N2CCNC(=O)C2CC(N)=O)c(NC(=O)Nc2cccc(Cl)c2Cl)s1` (stereo not given) had an IC50 of less than 5 µM.

`CC(=O)NC1CCCN(C(=O)c2cc(C(C)(C)C)sc2NC(=O)Nc2cccc(Cl)c2Cl)C1` (stereo not given) came in with an IC50 of less than 5 µM.

`CC(C)(C)c1cc(C(=O)N2CCNC(=O)C2(C)C)c(NC(=O)Nc2ccccc2Cl)s1` came in with an IC50 of less than 5 µM.

The compound `CC(C)(C)c1nc(C(=O)N2CCNC(=O)C2(C)C)c(NC(=O)Nc2cccc(Cl)c2Cl)s1` had a 50% inhibitory concentration (IC50) of less than 5 µM.

Compound `Cc1noc(CN2CCN(C(=O)c3cc(C(C)(C)C)sc3NC(=O)Nc3cccc(Cl)c3Cl)C(C)(C)C2=O)n1` showed an IC50 of less than 5 µM.

`COC(=O)c1ccc(NC(=O)Nc2sc(C(C)(C)C)cc2C(=O)N2CCNC(=O)CC2)c(Cl)c1Cl` gave a half-maximal inhibitory concentration (IC50) of less than 5 µM.

Compound `CC(C)(C)c1cc(NC(=O)Nc2cccc(Cl)c2Cl)c(C(=O)N2CCNS(=O)(=O)CC2)o1` displayed a half-inhibitory concentration (IC50) of less than 5 µM.

As for `Cc1c(F)cccc1NC(=O)Nc1sc(C(C)(C)C)cc1C(=O)N1CCNC(=O)C1(C)CCO` (stereo not given), the IC50 was less than 5 µM.

Turning to `CCC1(C)C(=O)N(CC(=O)NCCN2CCOCC2)CCN1C(=O)c1cc(C(C)(C)C)sc1NC(=O)Nc1cccc(Cl)c1Cl` (stereo not given), the 50% inhibitory concentration (IC50) was less than 5 µM.

As for `COC(=O)CN1CCN(C(=O)c2cc(C(C)(C)C)sc2NC(=O)Nc2ccc(F)c(Cl)c2Cl)C(C)(C)C1=O`, the IC50 is less than 5 µM.

Compound `CN(C)CCN1CCN(C(=O)c2cc(C(C)(C)C)sc2NC(=O)Nc2c(Cl)cncc2Cl)C(C)(C)C1=O` registered an IC50 of less than 5 µM.

For `COc1ccc(Cl)c(NC(=O)Nc2cc(C(C)(C)C)sc2C(=O)N2CCNC(=O)C2(C)C)c1`, the IC50 was less than 5 µM.

Compound `CN(C)CCN1CCN(C(=O)c2cc(C(C)(C)C)sc2NC(=O)Nc2ccc(F)cc2Cl)C(C)(C)C1=O` displayed an IC50 of less than 5 µM.

On to `Cc1noc(CC2(C)C(=O)NCCN2C(=O)c2cc(C(C)(C)C)sc2NC(=O)Nc2ccc(F)c(Cl)c2Cl)n1` (stereo not given), for which the IC50 was less than 5 µM.

Take `CC(C)(C)c1nc(C(=O)N2CCC(=O)N(CCN)CC2)c(NC(=O)Nc2cccc(Cl)c2Cl)s1`: the half-inhibitory concentration (IC50) was less than 5 µM.

Consider `CC(C)(C)c1cc(NC(=O)Nc2ccc(F)c(F)c2Cl)c(C(=O)N2CCNC(=O)C2(C)CCO)s1` (stereo not given), for which the half-inhibitory concentration (IC50) is less than 5 µM.

`CC(C)(C)c1cc(C(=O)N2CC(=O)NC(CO)C2)c(NC(=O)Nc2cccc(Cl)c2Cl)s1` (stereo not given) displayed an IC50 of less than 5 µM.

`COc1ccccc1NC(=O)Nc1sc(C(C)(C)C)cc1C(=O)N1CCC(=O)N(CCN(C)C)CC1`: the IC50 was less than 5 µM.

The compound `CCC1(C)C(=O)N(CCN(C)C)CCN1C(=O)c1cc(C(C)(C)C)sc1NC(=O)Nc1ccc(F)c(Cl)c1Cl` (stereo not given) registered a half-inhibitory concentration (IC50) of less than 5 µM.

The compound `CC(C)(C)c1cc(C(=O)N2CCNC(=O)C2(C)C)c(NC(=O)Nc2ccc(F)c(Cl)c2Cl)s1` gave a concentration for half-maximal inhibition (IC50) of less than 5 µM.

`CC(C)(C)c1cc(C(=O)N2CCN(CCO)C(=O)C2(C)C)c(NC(=O)Nc2cccc(Cl)c2Cl)s1` returned an IC50 of less than 5 µM.

As to `Cc1ccccc1NC(=O)Nc1sc(C(C)(C)C)cc1C(=O)N1CCC(=O)N(CCN(C)C)CC1`, the half-inhibitory concentration (IC50) was less than 5 µM.

For the compound `CC(C)(C)c1cc(C(=O)N2CCNC(=O)CC2)c(NC(=O)Nc2ccc(Cl)c(Cl)c2Cl)s1`, the IC50 was less than 5 µM.

`CN(C)CCN1CCN(C(=O)c2cc(C(C)(C)C)sc2NC(=O)Nc2ccccc2Cl)CCC1=O`: the half-inhibitory concentration (IC50) is less than 5 µM.

`COC(=O)CC1CC(=O)NCCN1C(=O)c1cc(C(C)(C)C)sc1NC(=O)Nc1cccc(Cl)c1Cl` (stereo not given) yielded an IC50 of less than 5 µM.

In turn, `O=C1CCN(C(=O)c2cc(Cl)c(C(F)(F)F)cc2NC(=O)Nc2cccc(Cl)c2Cl)CCN1` displayed an IC50 of less than 5 µM.

`CC(C)(C)c1cc(C(=O)N2CCN(C(=O)CCCC[C@@H]3SC[C@@H]4NC(=O)N[C@@H]43)CC2)c(NC(=O)Nc2cccc(Cl)c2Cl)s1` registered an IC50 of less than 5 µM.

In turn, `CC(C)(C)c1cc(NC(=O)Nc2cccc(Cl)c2Cl)c(C(=O)N2CCNC(=O)C2(C)C)s1` came in with an IC50 of less than 5 µM.

Regarding `CONC(=O)CN1CCN(C(=O)c2cc(C(C)(C)C)sc2NC(=O)Nc2cccc(Cl)c2Cl)C(C)(C)C1=O`, the IC50 is less than 5 µM.

For `CC(C)(C)c1cc(C(=O)N2CCNC(=O)CC2)c(NC(=O)Nc2ccccc2OC(F)(F)F)s1`, the IC50 is less than 5 µM.

With `CN(C)CCN1CCN(C(=O)c2cc(C(C)(C)C)sc2NC(=O)Nc2ccccc2C(C)(C)C)C(C)(C)C1=O`, the IC50 is less than 5 µM.

With `CN(C)CCN1CCN(C(=O)c2nc(C(C)(C)C)sc2NC(=O)Nc2cccc(Cl)c2Cl)CCC1=O`, the concentration for half-maximal inhibition (IC50) was less than 5 µM.

On to `CNC(=O)CN1CCN(C(=O)c2cc(C(C)(C)C)sc2NC(=O)Nc2cccc(Cl)c2Cl)C(C)(C)C1=O`, for which the IC50 is less than 5 µM.

As to `CC(C)(C)c1cc(C(=O)N2CCN(CC(=O)NO)C(=O)C2(C)C)c(NC(=O)Nc2ccc(F)c(Cl)c2Cl)s1`, the half-inhibitory concentration (IC50) was less than 5 µM.

Turning to `CCOC(=O)C(C)(CC)NC(=O)c1cc(C(C)(C)C)sc1NC(=O)Nc1cccc(Cl)c1Cl` (stereo not given), the IC50 is less than 5 µM.

Compound `CN(C)CCN1CCN(C(=O)c2sc(C(C)(C)C)cc2NC(=O)Nc2ccc(F)c(Cl)c2Cl)C(C)(C)C1=O` had an IC50 of less than 5 µM.

`CC(C)(C)c1cc(C(=O)N2CCN(CC(=O)O)C(=O)C2(C)C)c(NC(=O)Nc2cccc(Cl)c2Cl)s1`: the IC50 was less than 5 µM.

`CC(C)(C)c1cc(C(=O)N2CCNC(=O)CC2)c(NC(=O)Nc2c(Cl)cncc2Cl)s1` had an IC50 of less than 5 µM.

Compound `CC(C)(C)c1cc(C(=O)N2CCN(CCC(=O)N(CCO)CCO)C(=O)C2(C)C)c(NC(=O)Nc2cccc(Cl)c2Cl)s1` registered a concentration for half-maximal inhibition (IC50) of less than 5 µM.

The compound `CC(C)(C)c1cc(C(=O)N2CCNC(=O)C2)c(NC(=O)Nc2cccc3c2OCO3)s1` yielded an IC50 of less than 5 µM.

`CC(C)(C)c1cc(C(=O)N2CCNC(=O)C2(C)CC(N)=O)c(NC(=O)Nc2ccc(F)c(Cl)c2Cl)s1` (stereo not given) displayed a concentration for half-maximal inhibition (IC50) of less than 5 µM.

Compound `CC(C)(C)c1cc(C(=O)N2CCNC(=O)C2(C)C)c(NC(=O)Nc2cccnc2Cl)s1` gave a 50% inhibitory concentration (IC50) of less than 5 µM.

Compound `CN(C)CCN1CCN(C(=O)c2cc(C(C)(C)C)sc2NC(=O)Nc2cccc(Cl)c2Cl)C(C)(C)C1=O` displayed an IC50 of less than 5 µM.

The assay is the same for the next values; noted with them: concentration not given here.
On to `CC(C)(C)c1cc(NC(=O)Nc2cccc(Cl)c2Cl)c(C(=O)N2CCNC(=O)CC2)s1`, for which the inhibition (as a rule, the percentage by which the read-out fell short of the control) lay within 76 to 100%.

Compound `CC(C)(C)c1cc(C(=O)N[C@@H]2CC(=O)NC2=O)c(NC(=O)Nc2ccc(Cl)cc2)s1` showed an inhibition of 76 to 100%.

Take `CC(C)(C)c1cc(C(=O)N2CCNC(=O)CC2)c(NC(=O)Nc2ccc(C#N)c(Cl)c2)s1`: the inhibition lay in the range of 76 to 100%.

`CC(C)(C)c1cc(C(=O)N2CCNC(=O)CC2)c(NC(=O)Nc2ccc3ncoc3c2)s1`: the inhibition lay within 76 to 100%.

As for `CN(C)CCN1CCN(C(=O)c2cc(C(C)(C)C)sc2NC(=O)Nc2cccc(Cl)c2Cl)CCC1=O`, the inhibition was in the range of 76 to 100%.

On to `CC(C)(C)c1cc(C(=O)N2CCNS(=O)(=O)CC2)c(NC(=O)Nc2ccc(C#N)cc2C(F)(F)F)s1`, for which the inhibition lay within 76 to 100%.

Turning to `CC(C)(C)c1cc(C(=O)N2CCNC(=O)CC2)c(NC(=O)Nc2ccnc3ccccc23)s1`, the inhibition fell in the range of 51 to 75%.

In turn, `CC(C)(C)c1cc(C(=O)N2CCNC(=O)C(N)C2)c(NC(=O)Nc2cccc(Cl)c2Cl)s1` (stereo not given) had an inhibition of 76 to 100%.
